In patent US20130046003A1, “PHARMACEUTICAL COMPOSITIONS COMPRISING 4-BROMO-N-(IMIDAZOLIDIN-2-YLIDENE)-1H-BENZIMIDAZOL-5-AMINE FOR TREATING RETINAL DISEASES” (priority 2011, published 2013):

Assays:
[1] = tested on: retina damage caused by blue light; conditions: rats, 1 mg/kg IP one hour before 4 hours blue light exposure (6100-6500 lux); OCT at 7 days post exposure; versus saline
Method: Drugs were administered via intraperitoneal injection (IP) at a dose of 1 mg/kg one hour before blue light exposure.
Twenty 4-month old male Sprague-Dawley rats (body weight 470-550 g) were used in this study. The animals were exposed to room light on a 12 hour lighV12 hour dark cycle before the experiment. All animals were dark adapted overnight (16-20 hours) before blue light exposure. Under the intensity of 6100-6500 lux, rats were exposed to blue light for 4 hours. After the blue light, rats were placed in the dark for another 3 days before returning to normal 12 hour light/12 hour dark. Ocular Coherence Tomography (OCT) measurement was performed at 7 days post blue light exposure.

[2] = rats, after an oral dose of brimonidine tartrate; cited from earlier work
[3] = normal DB rabbits, intravenous route, 10-30 minutes post-dose
Method: Rabbits were dosed with 4-bromo-N-(imidazolidin-2-ylidene)-1H-benzimidazol-5-amine through intravenous route. Spatial sweep visual evoked potential (sVEP) acuity was assessed with PowerDiva software version 1.8. Recordings were made bilaterally in conscious animals.

[4] = tested on: alpha 2-adrenergic receptor; conditions: known from prior art; all three alpha-2 receptor subtypes; cited from earlier work

SMILES | protection of the retina from damage caused by blue light (retinal thickness measured by OCT) [1] | amount found in urine [2] | visual acuity (sVEP acuity) [3] | alpha 2-adrenergic receptor agonist activity [4]
Brc1c(N=C2NCCN2)ccc2nccnc12 [brimonidine, (5-bromo-quinoxalin-6-yl)-imidazolidin-2-ylidene-amine, reference compound] | significantly reduced and protected the retina from the damage caused by blue light |  |  | 
Brc1c(N=C2NCCN2)ccc2[nH]cnc12 [4-bromo-N-(imidazolidin-2-ylidene)-1H-benzimidazol-5-amine] |  | trace amounts | enhanced visual acuity | potent alpha 2-adrenergic receptor pan agonist, activating all three alpha-2 receptor subtypes
